Values quoted from earlier work in patent US20180071214A1, “Pharmaceutical Oral Dose Formulation and Composition of Matter” (priority 2016, published 2018).

Key:
[1] = p-glycoprotein substrate

intestinal absorption [1]: negligible intestinal absorption
Structure (SMILES): CC[C@]1(O)C[C@@H]2CN(CCc3c([nH]c4ccccc34)[C@@](C(=O)OC)(c3cc4c(cc3OC)N(C)[C@H]3[C@@](O)(C(=O)OC)[C@H](OC(C)=O)[C@]5(CC)C=CCN6CC[C@]43[C@@H]65)C2)C1 [vinblastinee]
tissue effect after intravenous injection: severe tissue irritation and even damage
